Columns and labels:
[1] = test system: 1G4 CTL clone with peptide-pulsed T2 target cells; assay: Live cell video microscopy of CTL lytic granule polarization; type: cell-based; details: T2 cells pulsed with 1 μM peptide
[2] = test system: 1G4 CTL clone with peptide-pulsed T2 target cells; type: cell-based; details: 30 min at 37°C
[3] = test system: Jurkat cells transfected with A2K^b cDNA; assay: In vitro killing assay with CTL from ESO 9V-immunized mice; type: cell-based
[4] = test system: splenocytes from ESO 9V- or ESO 9C-immunized A2K^b mice; assay: Ex-vivo IFN-γ ELISPOT assay; type: cell-based, mouse; details: reducing agent TCEP, unpublished data
[5] = molecular target: HLA-A2 loaded with the NY-ESO-1 157-165 analogue peptide …; assay: SPR
[6] = molecular target: HLA-A2 loaded with the wild-type NY-ESO-1 157-165 peptide …; assay: SPR

Row | Substance | rate of lytic granule polarization [1] | time from initial contact to granule polarization at the synapse ([1]; 1 h at 37°C, single CTL followed) | time without polarization of lytic granules toward either target ([1]; second CTL (red arrow)) | granule polarization [2] | lysis of peptide-loaded target cells by CTL from ESO 9V-immunized mice [3] | effect of TCEP on IFN-γ responses to ESO 9C peptide [4] | Kd [5] | Kd [6]
1 | SLLMWITQC [ESO 9C] | lytic granule polarization is slow | ≤ 17 min | > 22 min | polarization was poor | capable of lysing target cells loaded with wild-type ESO 9C peptide | responses were enhanced in the presence of the reducing agent TCEP |  | 
2 | soluble 1G4 TCR (NY-ESO-1 157-165-specific TCR from the 1G4 CTL clone) |  |  |  |  |  |  | 5 µM | 13.3 µM

From PMC2213140 (The Journal of Experimental Medicine, 2005)
